Assays:
hDGAT1 = biological target: T1, hDGAT1 (Homo sapiens, UniProt O75907); test: Enzymatic assay hDGAT1; assay type: biochemical
T1 sequence (O75907 1-488): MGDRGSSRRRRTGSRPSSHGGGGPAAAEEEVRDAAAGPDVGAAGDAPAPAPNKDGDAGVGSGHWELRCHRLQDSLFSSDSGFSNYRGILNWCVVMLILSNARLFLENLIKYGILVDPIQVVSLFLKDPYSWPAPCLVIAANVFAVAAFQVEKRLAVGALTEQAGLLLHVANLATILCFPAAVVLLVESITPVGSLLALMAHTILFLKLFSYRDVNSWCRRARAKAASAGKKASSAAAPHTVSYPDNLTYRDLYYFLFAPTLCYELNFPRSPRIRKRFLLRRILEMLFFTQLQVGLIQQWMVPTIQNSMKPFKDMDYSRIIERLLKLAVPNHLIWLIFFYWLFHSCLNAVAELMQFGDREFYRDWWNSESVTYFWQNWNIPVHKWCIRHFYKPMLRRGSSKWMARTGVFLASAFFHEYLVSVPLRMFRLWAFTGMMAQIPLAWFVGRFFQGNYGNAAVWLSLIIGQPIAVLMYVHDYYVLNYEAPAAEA
From the text: (§1) ACATs have sequence homology to DGAT-1 and play essential roles in cholesterol homeostasis. 17b was not explored in the enzymatic assays due to its poor pharmacokinetic profile.

hDGAT2 = biological target: T2, hDGAT2 (Homo sapiens, UniProt Q96PD7); test: Enzymatic assay hDGAT2; assay type: biochemical
T2 sequence (Q96PD7 1-388): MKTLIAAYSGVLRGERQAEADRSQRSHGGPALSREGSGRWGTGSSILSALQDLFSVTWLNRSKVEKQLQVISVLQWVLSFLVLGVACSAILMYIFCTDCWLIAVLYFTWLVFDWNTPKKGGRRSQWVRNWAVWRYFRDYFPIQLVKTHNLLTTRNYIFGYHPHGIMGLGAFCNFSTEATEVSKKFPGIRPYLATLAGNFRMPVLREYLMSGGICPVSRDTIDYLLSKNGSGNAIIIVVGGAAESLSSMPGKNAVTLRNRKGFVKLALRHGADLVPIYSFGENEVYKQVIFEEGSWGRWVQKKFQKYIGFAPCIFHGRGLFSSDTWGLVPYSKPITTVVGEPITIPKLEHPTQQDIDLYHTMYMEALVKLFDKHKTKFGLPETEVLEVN
From the text: as §1

hACAT2 = biological target: T3, hACAT2 (Homo sapiens, UniProt O75908); test: Enzymatic assay hACAT2; assay type: biochemical
T3 sequence (O75908 1-522): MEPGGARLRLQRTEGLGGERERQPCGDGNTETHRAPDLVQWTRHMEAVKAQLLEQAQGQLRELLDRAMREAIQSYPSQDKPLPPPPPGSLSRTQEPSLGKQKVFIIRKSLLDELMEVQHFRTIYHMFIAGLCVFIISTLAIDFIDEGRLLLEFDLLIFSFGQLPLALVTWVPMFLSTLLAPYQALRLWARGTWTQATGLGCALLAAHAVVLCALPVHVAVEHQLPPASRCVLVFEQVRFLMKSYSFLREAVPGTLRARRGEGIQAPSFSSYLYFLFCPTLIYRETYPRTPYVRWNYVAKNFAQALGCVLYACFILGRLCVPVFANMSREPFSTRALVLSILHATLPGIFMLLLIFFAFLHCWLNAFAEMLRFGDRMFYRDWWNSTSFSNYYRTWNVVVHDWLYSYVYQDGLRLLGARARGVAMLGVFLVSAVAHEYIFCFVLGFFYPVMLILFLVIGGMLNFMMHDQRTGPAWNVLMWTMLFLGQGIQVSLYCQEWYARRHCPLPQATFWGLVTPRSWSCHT
From the text: as §1

[1] = Pharmacokinetic profile in ICR mice; settings: mouse, in vivo
[2] = Pharmacokinetic profile in dog; assay type: in vivo
[3] = In vitro microsomal stability, human; assay type: in vitro ADME; settings: human liver microsomes, 5 μM, 60 min
[4] = In vitro microsomal stability, dog; assay type: in vitro ADME; settings: dog liver microsomes, 5 μM, 60 min
[5] = In vitro microsomal stability, rat; assay type: in vitro ADME; settings: rat liver microsomes, 5 μM, 60 min
[6] = In vitro microsomal stability, mouse; assay type: in vitro ADME; settings: mouse liver microsomes, 5 μM, 60 min
CYP3A4 = CYP3A4 (Homo sapiens, UniProt P08684); test: CYP inhibition assay CYP3A4; assay type: in vitro ADME; settings: fluorescence detection method; read-out: CYPs enzyme inhibition, IC50, CYP3A4
CYP3A4, sequence (P08684 whole entry): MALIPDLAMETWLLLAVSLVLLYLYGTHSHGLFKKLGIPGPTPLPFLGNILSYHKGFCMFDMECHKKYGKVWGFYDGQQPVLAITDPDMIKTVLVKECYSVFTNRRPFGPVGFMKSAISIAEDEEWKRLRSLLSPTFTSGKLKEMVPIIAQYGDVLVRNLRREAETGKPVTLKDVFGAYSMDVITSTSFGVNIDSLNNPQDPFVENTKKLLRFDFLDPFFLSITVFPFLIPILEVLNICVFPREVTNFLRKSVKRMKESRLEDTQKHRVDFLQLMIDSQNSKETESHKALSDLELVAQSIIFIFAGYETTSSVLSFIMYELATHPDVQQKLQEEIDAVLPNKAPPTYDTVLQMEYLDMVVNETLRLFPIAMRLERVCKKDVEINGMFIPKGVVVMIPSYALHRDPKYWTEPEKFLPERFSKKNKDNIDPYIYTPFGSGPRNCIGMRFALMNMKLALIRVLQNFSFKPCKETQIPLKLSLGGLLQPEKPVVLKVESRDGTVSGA

CYP2C9 = CYP2C9 (Homo sapiens, UniProt P11712); test: CYP inhibition assay CYP2C9; assay type: in vitro ADME; settings: fluorescence detection method; read-out: CYPs enzyme inhibition, IC50, CYP2C9
CYP2C9, sequence (P11712 whole entry): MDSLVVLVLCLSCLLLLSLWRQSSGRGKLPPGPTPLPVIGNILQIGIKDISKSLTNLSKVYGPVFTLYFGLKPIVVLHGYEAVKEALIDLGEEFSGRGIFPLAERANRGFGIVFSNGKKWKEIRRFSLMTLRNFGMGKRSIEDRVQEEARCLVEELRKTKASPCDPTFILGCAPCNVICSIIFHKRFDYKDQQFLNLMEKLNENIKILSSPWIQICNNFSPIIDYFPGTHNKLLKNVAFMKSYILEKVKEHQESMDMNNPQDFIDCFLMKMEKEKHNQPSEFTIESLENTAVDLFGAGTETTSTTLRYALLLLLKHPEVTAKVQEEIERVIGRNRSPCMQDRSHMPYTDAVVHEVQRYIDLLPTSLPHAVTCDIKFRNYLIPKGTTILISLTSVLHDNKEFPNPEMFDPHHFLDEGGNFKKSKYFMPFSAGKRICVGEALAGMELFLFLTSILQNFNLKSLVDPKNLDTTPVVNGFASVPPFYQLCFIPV

CYP2C19 = CYP2C19 (Homo sapiens, UniProt P33261); test: CYP inhibition assay CYP2C19; assay type: in vitro ADME; settings: fluorescence detection method; read-out: CYPs enzyme inhibition, IC50, CYP2C19
CYP2C19, sequence (P33261 whole entry): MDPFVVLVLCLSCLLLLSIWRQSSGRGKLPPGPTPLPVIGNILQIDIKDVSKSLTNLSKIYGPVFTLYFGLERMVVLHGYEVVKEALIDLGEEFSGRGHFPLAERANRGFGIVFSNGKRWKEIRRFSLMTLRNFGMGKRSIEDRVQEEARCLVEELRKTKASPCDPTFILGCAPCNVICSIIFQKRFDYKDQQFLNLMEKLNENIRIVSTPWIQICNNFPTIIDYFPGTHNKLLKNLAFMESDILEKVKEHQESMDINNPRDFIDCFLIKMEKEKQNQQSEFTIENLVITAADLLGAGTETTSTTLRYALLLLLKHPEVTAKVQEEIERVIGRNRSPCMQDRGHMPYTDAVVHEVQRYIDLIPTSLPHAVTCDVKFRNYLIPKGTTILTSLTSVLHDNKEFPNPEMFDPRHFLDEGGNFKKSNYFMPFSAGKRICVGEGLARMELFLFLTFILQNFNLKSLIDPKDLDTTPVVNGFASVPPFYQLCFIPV

plasma TAG level = test: Oral lipid tolerance test (OLTT), mouse; assay type: in vivo; settings: ICR mice, 17a 3 mg/kg po before corn oil, n = 5
Protocol: Male, Institute of Cancer Research (ICR) mice were obtained from OrientBio Inc. (Republic of Korea). ICR mice (8-weeks old, n = 5/group) fasted 16 h, received 5 mL/kg corn oil via oral administration (p.o.) 30 min after compound administration. Plasma was collected at different time points (0, 1, 2, and 4 h).
To determine in vivo efficacy, we evaluated the activity of 17a against serum TAG level induced by the oral administration of corn oil (oral lipid tolerance test, OLTT; Figures 3 and 4), since intestinal targeted DGAT-1 inhibition results in a reduced serum TAG level. 17a was orally administered to ICR mice at 3 mg/kg or to dogs at 1 mg/kg before administration of corn oil.
Figure 3. Effect of 17a in the oral lipid tolerance test (n = 5, ***p < .001). Serum TG (or TAG) concentration was measured before and 1, 2, and 4 h after oral administration of corn oil in ICR mice treated with 17a (3 mg/kg) or 2 (1 mg/kg). Vehicle for 2: 0.5% methylcellulose/0.5% Tween80 in distilled water, vehicle for 17a: 0.5% Tween80 in distilled water.

O=C([O-])C[C@H]1CC[C@@H](c2csc3c(-c4ccc(NC(=O)Nc5cccc(Cl)c5)cc4)ncnc32)CC1.[Na+] [Compound 17a, Sodium cis-2–(4–(4-(4-(3–(3-chlorophenyl)ureido)phenyl)thieno[3,2-d]pyrimidin-7-yl)cyclohexyl)acetate]
IC50 (hDGAT1): 0.061 µM
IC50 (hDGAT2): > 10 µM
IC50 (hACAT2): > 10 µM
bioavailability ([1]; oral 10 mg/kg vs iv 3 mg/kg): 19%
Cmax ([1]; oral 10 mg/kg, n = 3): 479 ng/mL
half-life ([1]; oral 10 mg/kg, n = 3): 1.2 h
AUC ([1]; oral 10 mg/kg, n = 3, read-out: AUC 0∼24): 861 ng·h/mL
Cl ([2]; 1 mg/kg iv, 3 mg/kg po): 6.7 ± 1.7 mL/min/kg
half-life ([2]; in vivo, 3 mg/kg po): 3.6 ± 0.7 h
bioavailability ([2]; in vivo, 3 mg/kg po vs 1 mg/kg iv): 53%
AUC ([2]; in vivo, 3 mg/kg po, read-out: AUC 0 ∼ 24): 8240 ± 2300 ng·h/mL
Microsomal stability, remaining percent [3]: 94%
Microsomal stability, remaining percent [4]: 82%
Microsomal stability, remaining percent [5]: 87%
Microsomal stability, remaining percent [6]: 82%
IC50 (CYP3A4): 16.2 µM
IC50 (CYP2C9): 2.9 µM
IC50 (CYP2C19): > 20 µM
Reduction of plasma TAG level in OLTT (plasma TAG level): significant activity, as potent as compound 2
